Data on four compounds can be found in publication PMC6348446 (Journal of Medicinal Chemistry, 2018).

Data set [1] addresses T1, VCB (VHL-ElonginC-ElonginB complex) (Homo sapiens, UniProt P40337).
T1 construct: His6 (cleaved yes); made in house; host or cells: Escherichia coli BL21(DE3)
The data set can be described thus: ITC, VCB titrated into PROTAC alone (binary). The settings on record: 25 °C. The data set is classed as binding. (In general: In ITC the heat of successive injections is recorded.)

The target in data set [2] is T2, VCB and BRD9-BD (ternary complex) (Homo sapiens, UniProt P40337+Q9H8M2).
T2 construct: the bromodomain (residues 134–239) for BRD9 (Q9H8M2); His6 (cleaved yes); made in house; host or cells: Escherichia coli BL21(DE3)
The data set can be described thus: ITC, VCB titrated into BRD9-BD:PROTAC binary complex (ternary). The data set is classed as binding. The settings on record: 25 °C; for N (stoichiometry), VCB into BRD9-BD:PROTAC complex / ΔG, VCB into BRD9-BD:PROTAC complex / ΔH, VCB into BRD9-BD:PROTAC complex / –TΔS, VCB into BRD9-BD:PROTAC complex: ITC; for cooperativity α (ITC): binary versus ternary VCB binding.

Data set [3] is described as follows: CHI LogD determination (reverse-phase HPLC). Conditions: reversed-phase HPLC (ACE Excel 3 SuperC18 column), pH 7.4; read-out: CHI LogD (pH7.4). Format: physicochemical. Here is the method:
removed from both acceptor and donor compartments and mixed with acetonitrile (80 µL) containing an internal standard. The samples were centrifuged (10 min, 5 °C, 3270 g) to sediment precipitated protein and sealed prior to UPLC-MS/MS analysis using a Xevo TQ-S Micro (Waters Corp, USA). Pe was calculated as shown in the below equation: […]
CA(t) = peak area of compound present in acceptor well at time t = 18000 s Cequi = [CD(t) x VD + CA(t) x VA] / (VD + VA)
VA = acceptor well volume
CD(t) = peak area of compound present in donor well at time t = 18000 s Recovery of compound from donor and acceptor wells was calculated and data was only accepted when recovery exceeded 70%.
Using a fast gradient, reverse-phase HPLC method to determine the chromatographic hydrophobicity index (CHI) was determined as described by Camurri and Zaramella (ref. 3) and Valko et al. (ref. 4). Briefly, by plotting the retention time of a set of reference […]
compounds against known CHI values. The CHI value of test compounds was then calculated according to their retention time.
Test compounds were prepared as 0.25 mM solutions in 50:50 acetonitrile:water and analysed by reversed-phase HPLC-UV (wavelength 254 nm) using a ACE Excel 3 SuperC18, 3 µm, 50 x 2.1 mm column with a gradient of aqueous phase (10 mM ammonium acetate, pH 7.4) and mobile phase (acetonitrile).
Intrinsic clearance (Cli) experiments
Test compound (0.5 µM) was incubated with female CD1 mouse or human (mixed gender) liver microsomes (Xenotech LLCTM; 0.5 mg/mL 50mM potassium phosphate buffer, pH7.4) and the reaction initiated with addition of excess NADPH (8 mg/mL 50 mM potassium phosphate buffer, pH7.4). Immediately, at time zero, then at 3, 6, 9, 15 and 30 minutes an aliquot (50 µL) of the incubation mixture was removed and mixed with acetonitrile (100 µL) to stop the reaction. Internal standard was added to all samples, the samples centrifuged to sediment precipitated protein and the plates then sealed prior to […] analysis using […]
a Xevo TQ-S Micro (Waters corporation, USA).
XLfit (IDBS, UK) was used to calculate the exponential decay and consequently the rate constant (k) from the ratio of peak area of test compound to internal standard at each timepoint. The rate of intrinsic clearance (CLi) of each test compound was then calculated using the following calculation:
CLi(mL/min/g liver) = k x V x Microsomal protein yield
Where V (mL/mg protein) is the incubation volume/mg protein added and microsomal protein yield is taken as 52.5 mg protein/ g liver. Verapamil (0.5 µM) was used as a positive control to confirm acceptable assay performance.

SMILES strings stand for the structures. Values joined by “and” are separate entries in the source; they are usually repeats but may differ in a detail not shown here. Equal values may be shown once.

T1 sequence (P40337 54-213 limits assumed): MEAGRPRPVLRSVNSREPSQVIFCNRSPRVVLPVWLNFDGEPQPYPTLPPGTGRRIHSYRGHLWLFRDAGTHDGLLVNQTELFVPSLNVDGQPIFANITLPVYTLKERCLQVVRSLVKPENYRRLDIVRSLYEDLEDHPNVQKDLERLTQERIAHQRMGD
T1 sequence (Q15369 17-112 partner limits assumed): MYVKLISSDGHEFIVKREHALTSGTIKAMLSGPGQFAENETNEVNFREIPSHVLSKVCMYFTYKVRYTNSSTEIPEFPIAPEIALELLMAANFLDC
T1 sequence (Q15370 1-104 partner limits assumed): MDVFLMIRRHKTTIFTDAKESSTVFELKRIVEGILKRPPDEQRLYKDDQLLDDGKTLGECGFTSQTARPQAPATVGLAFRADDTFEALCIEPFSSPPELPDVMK
T2 sequence (P40337 54-213 limits assumed): as the sequence (P40337 54-213 limits assumed) above
T2 sequence (Q15369 17-112 partner limits assumed): as the sequence (Q15369 17-112 partner limits assumed) above
T2 sequence (Q15370 1-104 partner limits assumed): as the sequence (Q15370 1-104 partner limits assumed) above
T2 sequence (Q9H8M2 134-239 limits assumed): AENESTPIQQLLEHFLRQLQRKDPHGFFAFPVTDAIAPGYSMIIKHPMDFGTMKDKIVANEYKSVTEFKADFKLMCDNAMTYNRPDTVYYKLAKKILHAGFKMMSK

Regarding `COc1cc(-c2cn(C)c(=O)c3cnccc23)cc(OC)c1CN1CCN(CCOCCOCC(=O)N[C@H](C(=O)N2C[C@H](O)C[C@H]2C(=O)NCc2ccc(-c3scnc3C)cc2)C(C)(C)C)CC1` [Compound 5, (2S,4R)-1-((S)-2-(2-(2-(2-(4-(2,6-Dimethoxy-4-(2-methyl-1-oxo-1,2-dihydro-2,7-naphthyridin-4-yl)benzyl)piperazin-1-yl)ethoxy)ethoxy)acetamido)-3,3-dimethylbutanoyl)-4-hydroxy-N-(4-(4-methylthiazol-5-yl)benzyl)pyrrolidine-2-carboxamide], in data set [1], the “N (stoichiometry), VCB into PROTAC alone” value stood at 0.60 ± 0.01; the “ΔG, VCB into PROTAC alone” value is “–10.2 ± 0.1 kcal/mol”; the “ΔH, VCB into PROTAC alone” value is “–15.2 ± 0.1 kcal/mol”. Also, in data set [2], the “N (stoichiometry), VCB into BRD9-BD:PROTAC complex” value came to 0.75 ± 0.05; the “ΔG, VCB into BRD9-BD:PROTAC complex” value was “–9.7 ± 0.1 kcal/mol”; the “ΔH, VCB into BRD9-BD:PROTAC complex” value was “–6.4 ± 0.1 kcal/mol”; the “–TΔS, VCB into BRD9-BD:PROTAC complex” value is given as “–3.3 ± 0.1 kcal/mol”.

For `COc1cc(-c2cn(C)c(=O)c3cnccc23)cc(OC)c1CN1CCN(CCOCCOCCOc2cc(-c3scnc3C)ccc2CNC(=O)[C@@H]2C[C@@H](O)CN2C(=O)[C@@H](NC(=O)C2(F)CC2)C(C)(C)C)CC1` [Compound 26, (2S,4R)-N-(2-(2-(2-(2-(4-(2,6-Dimethoxy-4-(2-methyl-1-oxo-1,2-dihydro-2,7-naphthyridin-4-yl)benzyl)piperazin-1-yl)ethoxy)ethoxy)ethoxy)-4-(4-methylthiazol-5-yl)benzyl)-1-((S)-2-(1-fluorocyclopropane-1-carboxamido)-3,3-dimethylbutanoyl)-4-hydroxypyrrolidine-2-carboxamide], in data set [1], the “N (stoichiometry), VCB into PROTAC alone” value is 0.99; the “ΔG, VCB into PROTAC alone” value is on record as “–9.64 ± 0.03 kcal/mol”; the “ΔH, VCB into PROTAC alone” value was “–6.56 ± 0.09 kcal/mol”; the “–TΔS, VCB into PROTAC alone” value was “–3.1 ± 0.1 kcal/mol”. Besides, in data set [2], the “N (stoichiometry), VCB into BRD9-BD:PROTAC complex” value turned out to be 0.99; the “ΔG, VCB into BRD9-BD:PROTAC complex” value is given as “–9.7 ± 0.2 kcal/mol”; the “ΔH, VCB into BRD9-BD:PROTAC complex” value is listed as “–6.4 ± 0.2 kcal/mol”; the “–TΔS, VCB into BRD9-BD:PROTAC complex” value is on record as “–3.3 ± 0.2 kcal/mol”. Besides, the “cooperativity α (ITC)” value in data set [2] is 1 and 1.05. In addition, in data set [3], the chromatographic logD was 2.

For the compound `COc1cc(-c2cn(C)c(=O)c3cnccc23)cc(OC)c1CN1CCN(CCCCCOc2cc(-c3scnc3C)ccc2CNC(=O)[C@@H]2C[C@@H](O)CN2C(=O)[C@@H](NC(=O)C2(F)CC2)C(C)(C)C)CC1` [Compound 51, (2S,4R)-N-(2-((5-(4-(2,6-Dimethoxy-4-(2-methyl-1-oxo-1,2-dihydro-2,7-naphthyridin-4-yl)benzyl)piperazin-1-yl)pentyl)oxy)-4-(4-methylthiazol-5-yl)benzyl)-1-((S)-2-(1-fluorocyclopropane-1-carboxamido)-3,3-dimethylbutanoyl)-4-hydroxypyrrolidine-2-carboxamide], in data set [1], the “N (stoichiometry), VCB into PROTAC alone” value stood at 0.73; the “ΔG, VCB into PROTAC alone” value is “–10.4 ± 0.2 kcal/mol”; the “ΔH, VCB into PROTAC alone” value is “–7.04 ± 0.08 kcal/mol”; the “–TΔS, VCB into PROTAC alone” value was “–3.4 ± 0.1 kcal/mol”. In data set [2], the “N (stoichiometry), VCB into BRD9-BD:PROTAC complex” value is given as 0.73; the “ΔG, VCB into BRD9-BD:PROTAC complex” value is on record as “–10.33 ± 0.08 kcal/mol”; the “ΔH, VCB into BRD9-BD:PROTAC complex” value is “–5.1 ± 0.1 kcal/mol”; the “–TΔS, VCB into BRD9-BD:PROTAC complex” value is recorded as “–5.3 ± 0.1 kcal/mol”. The “cooperativity α (ITC)” value in data set [2] (listed as VZ185) is 0.97 and 0.96. In addition, in data set [3], the chromatographic logD stood at 2.3.

As to `COc1cc(-c2cn(C)c(=O)c3cnccc23)cc(OC)c1CN1CCN(CCCCCOc2cc(-c3scnc3C)ccc2CNC(=O)[C@@H]2C[C@H](O)CN2C(=O)[C@@H](NC(=O)C2(F)CC2)C(C)(C)C)CC1` [cisVZ185], the chromatographic logD in data set [3] was found to be 2.4.
